Test results as given in patent US20080167330A1, “Carbamoylsulphoximides as protein kinase inhibitors” (priority 2006, published 2008).

What was measured:
CDK1/CycB = molecular target: T1, CDK1/CycB (Homo sapiens, UniProt P06493); experiment: CDK1/CycB kinase assay; assay type: biochemical; conditions: 0.5 μM ATP
T1 construct: GST; purchased ProQinase GmbH, Freiburg; host or cells: baculovirus-infected insect cells (Sf9)
Method: Recombinant CDK1- and CycB-GST fusion proteins, purified from baculovirus-infected insect cells (Sf9), were purchased from ProQinase GmbH, Freiburg. The histone IIIS used as kinase substrate can be purchased from Sigma.
CDK1/CycB (5 ng/μL) was incubated in the presence of various concentrations of test substances (0 μM, and within the range 0.01-100 μM) in 40 μL of assay buffer [50 mM Tris/HCl pH 8.0, 10 mM MgCl2, 0.1 mM Na ortho-vanadate, 1.0 mM dithiothreitol, 0.025% PEG 20000, 0.5 μM ATP, 10 μM histone IIIS, 0.2 μCi/measurement point ^33P-gamma ATP, 0.05% NP40, 1.25% dimethyl sulphoxide] at 22° C. for 10 min. The reaction was stopped by adding EDTA solution (250 mM, pH 8.0, 15 μl/measurement point). 15 μl of each reaction mixture were loaded onto P30 filter strips (from Wallac), and non-incorporated ^33P-ATP was removed by washing the filter strips three times in 0.5% strength phosphoric acid for 10 min each time. After the filter strips had been dried at 70° C. for 1 hour, the filter strips were covered with scintillator strips (MeltiLex™ A, from Wallac) and baked at 90° C. for 1 hour. The amount of incorporated ^33P (substrate phosphorylation) was determined by scintillation measurement in a gamma radiation counter (Wallac).
The measured data were normalized to 0% inhibition (enzyme reaction without inhibitor) and 100% inhibition (all assay components except enzyme). The IC50 values were determined by means of a 4-parameter fit using the company's own software.

human Aurora-C = molecular target: T2, human Aurora-C (Homo sapiens, UniProt Q9UQB9); experiment: Aurora-C kinase assay (HTRF); assay type: biochemical; conditions: 10 μM ATP
T2 construct: GST; made in house; host or cells: transiently transfected HEK293 cells
T2 sequence (Q9UQB9 1-309): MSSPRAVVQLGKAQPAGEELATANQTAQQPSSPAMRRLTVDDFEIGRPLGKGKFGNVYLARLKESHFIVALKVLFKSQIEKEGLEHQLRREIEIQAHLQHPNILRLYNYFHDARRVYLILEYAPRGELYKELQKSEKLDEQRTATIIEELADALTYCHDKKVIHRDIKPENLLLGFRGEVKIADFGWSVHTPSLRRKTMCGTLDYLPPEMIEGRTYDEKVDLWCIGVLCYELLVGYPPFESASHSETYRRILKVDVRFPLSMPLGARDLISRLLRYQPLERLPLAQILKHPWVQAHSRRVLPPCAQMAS
Method: The Aurora-C inhibitory activity of the substances of this invention was measured in the Aurora-C-HTRF assay (HTRF=Homogeneous Time Resolved Fluorescence) described in the following paragraphs.
Recombinant fusion protein of GST and human Aurora-C was expressed in transiently transfected HEK293 cells and purified by affinity chromatography on glutathione-Sepharose. The substrate used for the kinase reaction was the biotinylated peptide biotin-Ttds-FMRLRRLSTKYRT (C terminus in amide form) which can be purchased for example from JERINI Peptide Technologies (Berlin). Aurora-C was incubated in the presence of various concentrations of test substances in 5 μL of assay buffer [25 mM Hepes/NaOH pH 7.4, 0.5 mM MnCl2, 2.0 mM dithiothreitol, 0.1 mM sodium orthovanadate, 10 μM adenosine triphosphate (ATP), […] substrate, 0.01% (v/v) TritonX-100 (Sigma), 0.05% (w/v) bovine serum albumin (BSA), 1% (v/v) dimethyl sulphoxide] at 22° C. for 60 min. The concentration of Aurora-C was adapted to the particular activity of the enzyme and adjusted so that the assay operated in the linear range. Typical concentrations were in the region of 0.3 nM. The reaction was stopped by adding 5 μl of a solution of HTRF detection reagents (0.2 μM streptavidin-XLent and 1.4 nM anti-phospho-(Ser/Thr)-Akt substrate-Eu-cryptate (Cis biointernational, France, product No. 61P02KAE), a Europium-cryptate-labelled phospho-(Ser/Thr)-Akt substrate antibody [product #9611B, Cell Signaling Technology, Danvers, Mass., USA]) in aqueous EDTA solution (40 mM EDTA, 400 mM KF, 0.05% (w/v) bovine serum albumin (BSA) in 25 mM HEPES/NaOH pH 7.0).
The resulting mixture was incubated at 22° C. for 1 h in order to allow formation of a complex of the biotinylated phosphorylated substrate and the detection reagents. The amount of phosphorylated substrate was then estimated by measuring the resonance energy transfer from the anti-phospho-(Ser/Thr)-Akt substrate-Eu cryptate to the streptavidin-XLent. For this purpose, the fluorescence emissions at 620 nm and 665 nm after excitation at 350 nm were measured in an HTRF measuring instrument, e.g. a Rubystar (BMG Labtechnologies, Offenburg, Germany) or a Viewlux (Perkin-Elmer). The ratio of the emissions at 665 nm and at 622 nm was taken as a measure of the amount of phosphorylated substrate. The data were normalized (enzymic reaction without inhibitor=0% inhibition, all other assay components but no enzyme=100% inhibition) and IC50 values were calculated with a 4-parameter fit using an inhouse software.

[1] = test system: human MCF7 breast tumour cells; experiment: MCF7 proliferation assay; assay type: cell-based; conditions: MCF7, 96 h, 4 days incubation, crystal violet staining
Method: Cultivated human MCF7 breast tumour cells (ATCC HTB-22) were plated out in a density of 5000 cells/measurement point in 200 μl of growth medium (RPMI1640, 10% foetal calf serum, 2 mU/mL insulin, 0.1 nM oestradiol) in a 96-well multititre plate. After 24 hours, the cells from a plate (zero plate) were stained with crystal violet (see below), while the medium in the other plates was replaced by fresh culture medium (200 μl) to which the test substances had been added in various concentrations (0 μM, and in the range 0.01-30 μM; the final concentration of the solvent dimethyl sulphoxide was 0.5%). The cells were incubated in the presence of the test substances for 4 days. The cell proliferation was determined by staining the cells with crystal violet: the cells were fixed by adding 20 μl/measurement point of an 11% strength glutaraldehyde solution at room temperature for 15 min. After the fixed cells had been washed three times with water, the plates were dried at room temperature. The cells were stained by adding 100 μl/measurement point of a 0.1% strength crystal violet solution (pH adjusted to pH 3 by adding acetic acid). After the stained cells had been washed three times with water, the plates were dried at room temperature. The dye was dissolved by adding 100 μl/measurement point of a 10% strength acetic acid solution, and the extinction was determined by photometry at a wavelength of 595 nm. The percentage change in cell growth was calculated by normalizing the measurements to the extinctions of the zero point plate (=0%) and the extinction of the untreated (0 μM) cells (=100%). The IC50 values were determined by means of a 4-parameter fit using the company's own software.

T1 sequence (P06493 whole entry): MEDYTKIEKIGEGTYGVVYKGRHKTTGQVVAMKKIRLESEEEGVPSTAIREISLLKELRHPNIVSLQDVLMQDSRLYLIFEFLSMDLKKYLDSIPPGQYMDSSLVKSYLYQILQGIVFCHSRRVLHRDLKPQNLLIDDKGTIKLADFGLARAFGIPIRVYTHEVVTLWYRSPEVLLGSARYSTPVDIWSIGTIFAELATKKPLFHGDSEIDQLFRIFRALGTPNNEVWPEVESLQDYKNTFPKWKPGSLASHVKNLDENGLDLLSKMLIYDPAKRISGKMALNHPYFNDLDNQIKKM
T1 sequence (P14635 whole entry partner): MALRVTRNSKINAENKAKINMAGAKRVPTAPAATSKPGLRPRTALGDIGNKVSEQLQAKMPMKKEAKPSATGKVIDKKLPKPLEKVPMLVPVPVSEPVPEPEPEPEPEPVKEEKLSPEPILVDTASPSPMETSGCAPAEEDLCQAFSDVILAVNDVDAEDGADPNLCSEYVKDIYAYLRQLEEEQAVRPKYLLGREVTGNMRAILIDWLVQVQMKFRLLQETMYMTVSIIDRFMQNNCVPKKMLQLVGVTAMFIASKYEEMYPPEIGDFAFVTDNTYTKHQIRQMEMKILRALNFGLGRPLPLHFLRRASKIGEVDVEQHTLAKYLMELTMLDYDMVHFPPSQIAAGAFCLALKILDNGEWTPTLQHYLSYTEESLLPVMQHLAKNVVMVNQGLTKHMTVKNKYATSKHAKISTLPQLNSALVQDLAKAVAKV

Compound | IC50 (CDK1/CycB) [µM] | IC50 (human Aurora-C) [µM] | IC50 [1] [µM]
C[C@@H](Nc1nc(Nc2cccc(NC(=O)N=S(C)(C)=O)c2)ncc1Br)C(C)(C)O [Example 1, N-({3-[(5-Bromo-4-{[(R)-2-hydroxy-1,2-dimethylpropyl]amino}pyrimidin-2-yl)amino]phenyl}carbamoyl)-S,S-dimethylsulphoximide] | 0.024 | 0.16 | 0.4
C[C@@H](Nc1nc(Nc2ccc(NC(=O)N=S(C)(C)=O)cc2)ncc1Br)C(C)(C)O [Example 2, N-({4-[(5-Bromo-4-{[(R)-2-hydroxy-1,2-dimethylpropyl]amino}pyrimidin-2-yl)-amino]phenyl}carbamoyl)-S,S-dimethylsulphoximide] | 0.021 | 0.4 | 0.5
C[C@@H](O)[C@@H](C)Nc1nc(Nc2ccc(NC(=O)N=S(C)(C)=O)cc2)ncc1Br [Example 3, N-({4-[(5-Bromo-4-{[(1R,2R)-2-hydroxy-1-methylpropyl]amino}pyrimidin-2-yl)amino]phenyl}carbamoyl)-S,S-dimethylsulphoximide] | 0.007 | 0.28 | 0.16
C[C@@H](O)[C@@H](C)Oc1nc(Nc2ccc(NC(=O)N=S(C)(C)=O)cc2)ncc1Br [Example 4, N-({4-[(5-Bromo-4-{[(1R,2R)-2-hydroxy-1-methylpropyl]oxy}pyrimidin-2-yl)amino]phenyl}carbamoyl)-S,S-dimethylsulphoximide] | 0.005 | 0.42 | 0.14
C[C@@H](O)[C@@H](C)Nc1nc(Nc2cccc(NC(=O)N=S(C)(C)=O)c2)ncc1Br [Example 5, N-({3-[(5-Bromo-4-{[(1R,2R)-2-hydroxy-1-methylpropyl]amino}pyrimidin-2-yl)amino]phenyl}carbamoyl)-S,S-dimethylsulphoximide] | 0.01 | 0.054 | 0.16
C[C@@H](O)[C@@H](C)Oc1nc(Nc2cccc(NC(=O)N=S(C)(C)=O)c2)ncc1Br [Example 6, N-({3-[(5-Bromo-4-{[(1R,2R)-2-hydroxy-1-methylpropyl]oxy}pyrimidin-2-yl)amino]phenyl}carbamoyl)-S,S-dimethylsulphoximide] | 0.007 | 0.073 | 0.15
C[C@@H](O)[C@@H](C)Nc1nc(Nc2ccc(F)c(NC(=O)N=S(C)(C)=O)c2)ncc1Br [Example 7, N-({5-[(5-Bromo-4-{[(1R,2R)-2-hydroxy-1-methylpropyl]amino}pyrimidin-2-yl)amino]-2-fluorophenyl}carbamoyl)-S,S-dimethylsulphoximide] | 0.01 | 0.37 | 0.5
Cc1ccc(Nc2ncc(Br)c(N[C@H](C)[C@@H](C)O)n2)cc1NC(=O)N=S(C)(C)=O [Example 8, N-({5-[(5-Bromo-4-{[(1R,2R)-2-hydroxy-1-methylpropyl]amino}pyrimidin-2-yl)amino]-2-methylphenyl}carbamoyl)-S,S-dimethylsulphoximide] | 0.021 | 0.81 | 0.7
COc1ccc(Nc2ncc(Br)c(N[C@H](C)[C@@H](C)O)n2)cc1NC(=O)N=S(C)(C)=O [Example 10, N-({5-[(5-Bromo-4-{[(1R,2R)-2-hydroxy-1-methylpropyl]amino}pyrimidin-2-yl)amino]-2-methoxyphenyl}carbamoyl)-S,S-dimethylsulphoximide] | 0.026 | 0.41 | 0.65
COc1cc(Nc2ncc(Br)c(N[C@H](C)[C@@H](C)O)n2)ccc1NC(=O)N=S(C)(C)=O [Example 11, N-({4-[(5-Bromo-4{[(1R,2R)-2-hydroxy-1-methylpropyl]amino}pyrimidin-2-yl)amino]-2-methoxyphenyl}carbamoyl)-S,S-dimethylsulphoximide] | 0.046 | 0.43 | 0.99
C[C@@H](O)[C@@H](C)Nc1nc(Nc2ccc(Cl)c(NC(=O)N=S(C)(C)=O)c2)ncc1Br [Example 12, N-({5-[(5-Bromo-4-{[(1R,2R)-2-hydroxy-1-methylpropyl]amino}pyrimidin-2-yl)amino]-2-chlorophenyl}carbamoyl)-S,S-dimethylsulphoximide] | 0.018 | 1.3 | 0.86
C[C@@H](O)[C@@H](C)Nc1nc(Nc2ccc(NC(=O)N=S(C)(C)=O)cc2)ncc1C(F)(F)F [Example 15] | 0.015 | 0.15 | 0.53
CS(C)(=O)=NC(=O)Nc1ccc(Nc2ncc(Br)c(Nc3ccc4[nH]cnc4c3)n2)cc1 [Example 16, N-[(4-{[4-(1H-Benzimidazol-5-ylamino)-5-bromopyrimidin-2-yl]amino}phenyl)-carbamoyl]-S,S-dimethylsulphoximide] | 0.14 | 0.4 | 2.1
C[C@@H](O)[C@@H](C)Nc1nc(Nc2cccc(C(=O)N=S(C)(C)=O)c2)ncc1Br [Example 17, N-{3-[(5-Bromo-4-{[(1R,2R)-2-hydroxy-1-methylpropyl]amino}pyrimidin-2-yl)amino]benzoyl}-S,S-dimethylsulphoximide] | 0.01 | 2 | 0.38
C[C@@H](O)[C@@H](C)Nc1nc(Nc2ccc(C(=O)N=S(C)(C)=O)cc2)ncc1Br [Example 18, N-{4-[(5-Bromo-4-{[(1R,2R)-2-hydroxy-1-methylpropyl]amino}pyrimidin-2-yl)amino]benzoyl}-S,S-dimethylsulphoximide] | 0.018 | 0.28 | 0.14
